# From US12139729B2, “Neurodegenerative disorders” (priority 2013, dated 2024)
# Residues, ends and D or L forms follow the SMILES beside them.
# Assays:
# [1] = Partition coefficient (Log P), shake-tube method, 1-octanol/water; format: physicochemical; conditions: room temperature
# Procedure: Saturation of the solvents was performed as follows. 1-octanol was agitated in the presence of water for 24 h at room temperature. mQ water was agitated in presence of 1-octanol for 24 h at room temperature. Then the solutions were left to equilibrate overnight at room temperature. Saturated solvents were collected, using syringes and needles, and stored at room temperature until further use.
# Saturated water and saturated i-octanol were placed in a glass tube in the following ratios: Each tube contained the equivalent of 0.25 mg of cyclic T14. All tubes were then mixed for 4 h at room temperature. After agitation the tubes were left at room temperature to equilibrate.
# The concentrations of cyclic T14 used for the standard curve were: 0.5 mg·ml^−1, 0.25 mg·ml^−1, 0.13 mg·ml^−1, 0.066 mg·ml^−1, 0.033 mg·ml^−1 and 0.016 mg/ml^−1. The absorbance of the standard curve was measured at 280 nm.
# Both fractions of each sample were collected separately using a syringe with needle. The absorbance of all fractions was measured at 280 nm and the concentration of all the fraction was estimated based on the standard curve. The partition coefficient of cyclic T14 was calculated using the following equation: Log P=Log (Concentration in Octanol/Concentration in Water)
# The results from each condition were averaged in order to obtain the Log P of cyclic T14.
# [2] = tested on: rat model for hemi-Parkinsonism; assay: Paw placement test (cylinder test) after 6-OHDA lesion; format: in vivo; conditions: day 2: two days post 6-OHDA, one day after NBP-14 injection via cannula into MFB; p<0.05 vs 6-OHDA vehicle
# Procedure: Unlike animal models for Alzheimer's disease, the rat model for hemi-Parkinsonism is very well established and readily quantifiable. Accordingly, a unilateral intra striatum injection of the T30 was administered to observe any behavioural effects of the toxin. In a subsequent experiment, the potential protective effects of NBP14 were observed against the well-known neurotoxin 6-hydroxydopamine (6-OHDA), which led to DA neuron loss on the injected side whilst sparing the contralateral DA neurons. NBP-14 was administered via implanted cannula into the medial forebrain bundle (MFB). 6-hydroxydopamine was injected at 10 mg/kg.
# Animals are anaesthetized using Ketamine (10%; 0.1 ml/kg body weight) and Xylazine (2%; 0.01 ml/kg). The animals are then stereotactically injected into the MFB with 2 μL 6-OHDA at a concentration of 20 mg/ml in 0.02% ascorbic acid. […]
# Paw Placement Test (Cylinder Test): This test assesses a rat's independent forelimb use to support the body against the walls of a cylindrical enclosure. […] To perform this test, rats are placed individually in a glass cylinder (21 cm diameter, 34 cm height) and wall exploration is recorded for 3 minutes. […] Wall exploration is expressed in terms of the ratio between the intact (R) and impaired legs (L) and calculated as the values of intact right+both forelimbs divided into the values of impaired left+both forelimbs (R/L). […]
smiles,measurement,setting,value
CSCC[C@@H]1NC(=O)[C@H](Cc2ccc(O)cc2)NC(=O)[C@H](CO)NC(=O)[C@H](CO)NC(=O)[C@H](Cc2c[nH]c3ccccc23)NC(=O)[C@H](CCCNC(=N)N)NC(=O)[C@H](Cc2c[nH]cn2)NC(=O)[C@H](Cc2ccccc2)NC(=O)[C@H](CCC(=O)O)NC(=O)[C@H](C)NC(=O)[C@H](CCCCN)NC(=O)[C@H](Cc2c[nH]c3ccccc23)NC(=O)[C@H](Cc2c[nH]cn2)NC(=O)[C@H](C(C)C)NC1=O [Cyclic T14] (cyclo(AEFHRWSSYMVHWK)),logP,[1],-0.59
same,R/L ratio of paw placement,[2],3.62±0.55
